Experimental data published in patent US10947201B2, “Certain chemical entities, compositions, and methods” (NEUPHARMA, INC., priority 2015, dated 2021).

Experiments:
EGFR (ErbB1) = target: T1, EGFR (ErbB1) (Homo sapiens, UniProt P00533); experiment: Z'-LYTE kinase inhibition assay (Invitrogen), EGFR; format: biochemical; settings: for inhibition at 0.1 µM: compound at 100 nM, [ATP] = Km; for inhibition at 0.041 µM: compound at 41 nM, 10 μM of ATP
T1 construct: purchased Invitrogen
Experimental: (§1) Inhibitory activities of compounds against BTK, EGFR and EGFR mutants (EGFR L858R/T790M) were measured by Invitrogen using Z′-LYTE® Method as briefly described in the following.
(§2) Test Compounds are screened in 1% DMSO (final) in the well. For 10 point titrations, 3-fold serial dilutions are conducted from the starting concentration. All ATP Solutions are diluted to a 4× working concentration in Kinase Buffer (50 mM HEPES pH 7.5, 0.01% BRIJ-35, 10 mM MgCl2, 1 mM EGTA). Peptide/Kinase Mixtures are diluted to a 2× working concentration in the appropriate Kinase Buffers as described below.
(i) Peptide/Kinase Mixtures for measurement of EGFR (ErbB1):
The 2×EGFR (ErbB1)/Tyr 04 mixture is prepared in 50 mM HEPES pH 7.5, 0.01% BRIJ-35, 10 mM MgCl2, 4 mM MnCl2, 1 mM EGTA, 2 mMDTT. The final 10 μL Kinase Reaction consists of 1.1-5.25 ng EGFR (ErbB1) and 2 μM Tyr 04 in 50 mM HEPES pH 7.5, 0.01% BRIJ-35, 10 mM MgCl2, 2 mM MnCl2, 1 mM EGTA, 1 mM DTT. After the 1 hour Kinase Reaction incubation, 5 μL of a 1:64 dilution of DevelopmentReagent B is added.
(§3) Reaction starts by 30-second shaking of mixture consisting of 2.5 μL 4× test compound, 5 μL 2× kinase reaction mixture and 2.5 μL 4×ATP Solution on Bar-coded Corning, low volume NBS, black 384-well plate (Corning Cat. #3676). Then the mixture is incubated for 60-minute at room temperature for the kinase reaction, followed by addition of 5 μL of a 1:1024 dilution of development reagent A and 30-second plate shake. The mixture is then incubated for another 60-minute at room temperature for development reaction. Finally fluorescence is read by plate reader. […] The scale utilized in Tables 2 and 3 is as follows: ++ more than 50% inhibition and + less than 50% inhibition.
(§4) To determine IC50 of a compound against EGFR or EGFR mutants, a series of concentrations of the compound were tested for the inhibition. IC50 was calculated by plotting the concentration of compound vs the percentage of inhibition in treated wells using GraphPad Prism 5. […] The scale utilized in Table 4 is as follows: ++ less than 100 nM and + greater than 100 nM.

EGFR (ErbB1) T790M L858R = target: T2, EGFR (ErbB1) T790M L858R (Homo sapiens, UniProt P00533, L858R/T790M); experiment: Z'-LYTE kinase inhibition assay (Invitrogen), EGFR L858R/T790M; format: biochemical; settings: for inhibition at 0.1 µM: compound at 100 nM, [ATP] = Km; for inhibition at 0.0137 µM: compound at 13.7 nM, 10 μM of ATP
T2 construct: purchased Invitrogen
T2 sequence (P00533 25-1210 T790M/L858R): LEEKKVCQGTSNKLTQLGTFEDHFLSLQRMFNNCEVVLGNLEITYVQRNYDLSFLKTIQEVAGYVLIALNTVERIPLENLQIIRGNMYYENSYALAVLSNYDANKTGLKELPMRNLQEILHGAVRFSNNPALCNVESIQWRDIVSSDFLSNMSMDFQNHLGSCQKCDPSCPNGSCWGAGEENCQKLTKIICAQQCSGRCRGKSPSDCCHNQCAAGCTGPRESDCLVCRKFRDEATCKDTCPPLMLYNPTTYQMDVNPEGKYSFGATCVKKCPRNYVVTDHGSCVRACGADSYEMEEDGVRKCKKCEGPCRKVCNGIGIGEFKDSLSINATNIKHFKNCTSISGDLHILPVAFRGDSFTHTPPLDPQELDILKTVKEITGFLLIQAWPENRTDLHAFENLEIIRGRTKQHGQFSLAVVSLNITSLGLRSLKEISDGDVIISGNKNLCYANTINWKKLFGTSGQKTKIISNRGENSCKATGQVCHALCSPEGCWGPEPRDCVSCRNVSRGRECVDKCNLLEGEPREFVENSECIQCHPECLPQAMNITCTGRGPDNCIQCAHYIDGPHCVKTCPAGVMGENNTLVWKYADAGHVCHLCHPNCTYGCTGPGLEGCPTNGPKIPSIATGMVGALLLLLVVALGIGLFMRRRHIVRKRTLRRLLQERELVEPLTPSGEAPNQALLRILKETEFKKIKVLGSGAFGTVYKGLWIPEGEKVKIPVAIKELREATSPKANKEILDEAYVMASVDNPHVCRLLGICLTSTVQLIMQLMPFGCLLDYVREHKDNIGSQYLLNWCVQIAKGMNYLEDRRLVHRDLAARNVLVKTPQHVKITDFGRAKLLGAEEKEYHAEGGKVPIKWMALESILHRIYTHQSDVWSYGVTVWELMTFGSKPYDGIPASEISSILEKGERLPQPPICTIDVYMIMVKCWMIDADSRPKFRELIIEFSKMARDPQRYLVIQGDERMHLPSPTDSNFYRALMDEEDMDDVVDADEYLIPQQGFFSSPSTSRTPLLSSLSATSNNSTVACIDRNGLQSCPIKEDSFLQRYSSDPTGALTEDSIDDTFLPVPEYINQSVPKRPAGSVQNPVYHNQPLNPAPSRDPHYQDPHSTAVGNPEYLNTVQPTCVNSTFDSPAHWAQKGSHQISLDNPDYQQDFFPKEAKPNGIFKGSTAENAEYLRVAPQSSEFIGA
Experimental: as §1, §2
(iv) Peptide/Kinase Mixtures for measurement of EGFR (ErbB1) T790M L858R:
The 2×EGFR (ErbB1) T790M L858R/Tyr 04 mixture is prepared in 50 mM HEPES pH 6.5, 0.01% BRIJ-35, 10 mM MgCl2, 1 mM EGTA, 0.02% NaN3. The final 10 μL Kinase Reaction consists of 0.38-4.22 ng EGFR (ErbB1) T790M L858R and 2 μM Tyr 04 in 50 mM HEPES pH 7.0, 0.01% BRIJ-35, 10 mM MgCl2, 1 mM EGTA, 0.01% NaN3. After the 1 hour Kinase Reaction incubation, 5 μL of a 1:64 dilution of Development Reagent B is added.
as §3, §4

BTK = target: T3, BTK (Homo sapiens, UniProt Q06187); experiment: Z'-LYTE kinase inhibition assay (Invitrogen), BTK; format: biochemical; settings: for inhibition at 0.1 µM: compound at 100 nM, [ATP] = Km; for inhibition at 0.041 µM: compound at 41 nM, 10 μM of ATP
T3 construct: purchased Invitrogen
T3 sequence (Q06187 whole entry): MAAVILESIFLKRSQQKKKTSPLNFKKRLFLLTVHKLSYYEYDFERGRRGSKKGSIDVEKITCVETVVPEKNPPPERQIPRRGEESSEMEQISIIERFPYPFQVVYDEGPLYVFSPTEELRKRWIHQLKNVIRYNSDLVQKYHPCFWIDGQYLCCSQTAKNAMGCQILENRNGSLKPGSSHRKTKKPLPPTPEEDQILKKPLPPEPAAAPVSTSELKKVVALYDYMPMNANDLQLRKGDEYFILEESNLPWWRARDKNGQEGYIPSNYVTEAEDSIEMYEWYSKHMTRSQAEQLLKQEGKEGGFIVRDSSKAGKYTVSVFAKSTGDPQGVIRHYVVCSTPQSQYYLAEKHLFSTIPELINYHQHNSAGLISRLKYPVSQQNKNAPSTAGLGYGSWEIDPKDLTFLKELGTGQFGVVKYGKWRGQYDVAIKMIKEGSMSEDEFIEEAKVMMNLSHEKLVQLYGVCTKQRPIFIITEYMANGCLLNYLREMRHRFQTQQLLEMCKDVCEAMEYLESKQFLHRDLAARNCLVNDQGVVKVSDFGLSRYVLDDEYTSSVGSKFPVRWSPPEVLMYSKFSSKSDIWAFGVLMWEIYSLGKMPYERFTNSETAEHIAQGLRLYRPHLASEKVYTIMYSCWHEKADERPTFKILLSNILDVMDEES
Experimental: as §1, §2
(v) Peptide/Kinase Mixtures for measurement of BTK:
The 2×BTK/Tyr 01 mixture is prepared in 50 mM HEPES pH 7.5, 0.01% BRIJ-35, 10 mM MgCl2, 1 mM EGTA. The final 10 μL Kinase Reaction consists of 1.04-10.4 ng BTK and 2 μM Tyr 01 in 50 mM HEPES pH 7.5, 0.01% BRIJ-35, 10 mM MgCl2, 1 mM EGTA. After the 1 hour Kinase Reaction incubation, 5 μL of a 1:256 dilution of Development Reagent B is added.
as §3, §4

H1975 cells = experiment: MTT cell growth inhibition assay, H1975; format: cell-based; settings: Homo sapiens, NCI-H1975, H1975 cells (EGFR L858R/T790M), 72 h
Experimental: (§5) Inhibition of cell growth by compounds was measured using MTT assay (Mosmann, T., Journal of Immunological Methods, 1983, 65, 55-63). Tumor cell lines were purchased from ATCC (American Type Culture Collection, Manassas, Va.). All cell lines were maintained in RPMI 1640 (Hyclone) supplemented with 10% fetal bovine serum (FBS, Hyclone), glutamine (2 mM, Hyclone), and antibiotics (penicillin 100 U/mL and streptomycin 50 μg/mL) at 37° C. in a humidified atmosphere of 5% CO2 in air. Taxol (as a positive control, Sigma) and compounds were dissolved in DMSO (Sigma), and the final concentration of DMSO in the medium was 1%. Tumor cells were plated in 96-well plates at densities of about 4000 cells/well of a 96-well plate and allowed to adhere/grow for 24 h. They were then treated with various concentrations of drug for 72 h. 3-(4,5-Dimethylthiazol-2-yl)-2,5-diphenyltetrazolium bromide (MTT, Sigma) was used to determine the number of viable cells at the time of compound addition and the number of cells remaining after 72 h compound exposure. The number of cells remaining after 72 h was compared to the number of viable cells at the time of compound addition by measuring the absorbance at 570 nm, allowing for the calculation of growth inhibition.
(§6) All concentrations of compounds were tested in triplicate and controls were averaged over 4 wells. IC50 was calculated by plotting the concentration of compound vs the percentage of inhibition in treated wells using GraphPad Prism 5.
(§7) Tables 5 show IC50 values of several compounds of the invention in A549, A431, H1299, and H1975 human cancer cells. A549 cells have a mutation on KRAS, H3255 cells have L858R mutation, and H1975 cells have double EGFR mutations (L858R/T790M). The scale utilized in Table 5 is as follows: +++ less than 100 nM; ++ between 100 nM and 500 nM; and + greater than 500 nM.

A549 cells = experiment: MTT cell growth inhibition assay, A549; format: cell-based; settings: Homo sapiens, A549 cells (KRAS mutation), 72 h
Experimental: as §5, §6, §7

T1 sequence (P00533 25-1210): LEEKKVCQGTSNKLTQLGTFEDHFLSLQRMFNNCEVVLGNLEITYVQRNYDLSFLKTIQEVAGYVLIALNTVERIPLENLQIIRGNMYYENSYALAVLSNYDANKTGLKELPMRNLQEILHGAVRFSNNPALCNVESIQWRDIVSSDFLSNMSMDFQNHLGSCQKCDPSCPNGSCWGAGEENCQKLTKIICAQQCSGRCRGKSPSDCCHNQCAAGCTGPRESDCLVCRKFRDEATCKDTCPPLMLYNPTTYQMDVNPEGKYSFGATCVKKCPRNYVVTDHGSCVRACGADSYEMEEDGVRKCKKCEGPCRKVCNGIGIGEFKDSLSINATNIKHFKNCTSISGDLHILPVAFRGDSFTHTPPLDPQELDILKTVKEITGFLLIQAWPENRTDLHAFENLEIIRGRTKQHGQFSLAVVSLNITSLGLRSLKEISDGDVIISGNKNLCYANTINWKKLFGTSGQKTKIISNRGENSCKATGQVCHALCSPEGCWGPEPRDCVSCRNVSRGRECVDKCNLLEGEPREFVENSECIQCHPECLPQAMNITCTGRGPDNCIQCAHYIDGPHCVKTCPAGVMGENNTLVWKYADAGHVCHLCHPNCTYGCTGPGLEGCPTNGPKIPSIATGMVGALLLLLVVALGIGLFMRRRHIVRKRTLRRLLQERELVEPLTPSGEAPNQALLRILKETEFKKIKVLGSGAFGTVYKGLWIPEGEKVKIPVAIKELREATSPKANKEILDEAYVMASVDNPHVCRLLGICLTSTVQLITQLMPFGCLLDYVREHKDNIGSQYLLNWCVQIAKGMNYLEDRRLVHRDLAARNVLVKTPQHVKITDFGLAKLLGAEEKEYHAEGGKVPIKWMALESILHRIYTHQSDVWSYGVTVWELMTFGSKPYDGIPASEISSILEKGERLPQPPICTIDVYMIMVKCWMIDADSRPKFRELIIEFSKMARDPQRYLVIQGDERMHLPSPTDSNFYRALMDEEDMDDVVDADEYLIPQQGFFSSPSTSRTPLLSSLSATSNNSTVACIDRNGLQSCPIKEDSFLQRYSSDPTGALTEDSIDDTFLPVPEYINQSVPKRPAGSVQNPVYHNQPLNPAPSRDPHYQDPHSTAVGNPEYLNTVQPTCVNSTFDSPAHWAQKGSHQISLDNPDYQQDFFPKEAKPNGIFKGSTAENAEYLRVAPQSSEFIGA

inhibition at 0.1 µM (EGFR (ErbB1)) [%] | inhibition at 0.1 µM (EGFR (ErbB1) T790M L858R) [%] | inhibition at 0.1 µM (BTK) [%] | inhibition at 0.0137 µM (EGFR (ErbB1) T790M L858R) [%] | IC50 (H1975 cells) [nM] | inhibition at 0.041 µM (EGFR (ErbB1)) [%] | inhibition at 0.041 µM (BTK) [%] | IC50 (A549 cells) [nM] | SMILES
< 50 | < 50 | < 50 |  |  |  |  |  | C=CC(=O)N1CCCC(n2cnc3cnc(Nc4ccc(N5CCN(CCO)CC5)c(F)c4F)nc32)C1 (centres unmarked) [Example A024, 1-(3-(2-((2,3-difluoro-4-(4-(2-hydroxyethyl)piperazin-1-yl)phenyl)amino)-9H-purin-9-yl)piperidin-1-yl)prop-2-en-1-one]
 |  |  | < 50 | < 100 |  |  |  | C=CC(=O)Nc1cc(Nc2ncc3cccc(Br)c3n2)ccc1N(C)CCN(C)C [Example C001, N-(5-((8-bromoquinazolin-2-yl)amino)-2-((2-(dimethylamino)ethyl)(methyl)amino)phenyl) acrylamide]
< 50 | < 50 | > 50 | < 50 | < 100 | < 50 | > 50 |  | C=CC(=O)Nc1cc(Nc2ncc3cccc(-c4ccncc4)c3n2)ccc1N(C)CCN(C)C [Example C007, N-(2-((2-(dimethylamino)ethyl)(methyl)amino)-5-((8-(pyridin-4-yl)quinazolin-2-yl)amino)phenyl)acrylamide]
< 50 | < 50 | > 50 | > 50 | 100 to 500 | < 50 | > 50 | 100 to 500 | C=CC(=O)Nc1cc(Nc2ncc3cccc(-c4ccccc4Cl)c3n2)ccc1N(C)CCN(C)C [Example C008, N-(5-((8-(2-chlorophenyl)quinazolin-2-yl)amino)-2-((2-(dimethylamino)ethyl)(methyl)amino)phenyl) acrylamide]
< 50 | < 50 | > 50 | > 50 | < 100 | < 50 | > 50 |  | C=CC(=O)Nc1cc(Nc2ncc3cccc(-c4ccccc4F)c3n2)ccc1N(C)CCN(C)C [Example C009, N-(2-((2-(dimethylamino)ethyl)(methyl)amino)-5-((8-(2-fluorophenyl)quinazolin-2-yl)amino)phenyl)acrylamide]
< 50 | < 50 | > 50 | < 50 | 100 to 500 | < 50 | > 50 |  | C=CC(=O)Nc1cc(Nc2ncc3cccc(-c4cccnc4)c3n2)ccc1N(C)CCN(C)C [Example C010, N-(2-((2-(dimethylamino)ethyl)(methyl)amino)-5-((8-(pyridin-3-yl)quinazolin-2-yl)amino)phenyl)acrylamide]
< 50 | < 50 | > 50 | < 50 | < 100 | < 50 |  |  | C=CC(=O)Nc1cc(Nc2ncc3cccc(-c4cccc(Cl)c4)c3n2)ccc1N1CCN(C)CC1 [Example C011, N-(5-((8-(3-chlorophenyl)quinazolin-2-yl)amino)-2-(4-methylpiperazin-1-yl)phenyl)acrylamide]
< 50 | < 50 | > 50 | > 50 | < 100 | < 50 |  |  | C=CC(=O)Nc1cc(Nc2ncc3cccc(-c4cccc(Cl)c4)c3n2)ccc1OCCN(C)C [Example C012, N-(5-((8-(3-chlorophenyl)quinazolin-2-yl)amino)-2-(2-(dimethylamino)ethoxy)phenyl)acrylamide]
< 50 | < 50 | > 50 | > 50 | 100 to 500 | < 50 |  |  | C=CC(=O)Nc1cc(Nc2ncc3cccc(-c4cccc(Cl)c4)c3n2)ccc1OC1CCN(C)CC1 [Example C013, N-(5-((8-(3-chlorophenyl)quinazolin-2-yl)amino)-2-((1-methylpiperidin-4-yl)oxy)phenyl)acrylamide]
< 50 | < 50 | > 50 | < 50 | < 100 | < 50 |  |  | C=CC(=O)Nc1cc(Nc2ncc3cccc(-c4ccccc4Cl)c3n2)ccc1OCCN(C)C [Example C014, N-(5-((8-(2-chlorophenyl)quinazolin-2-yl)amino)-2-(2-(dimethylamino)ethoxy)phenyl)acrylamide]
< 50 | < 50 | < 50 | < 50 | > 500 | < 50 |  |  | C=CC(=O)Nc1cc(Nc2ncc3cccc(-c4cccc(Cl)c4)c3n2)ccc1OCCOC [Example C015, N-(5-((8-(3-chlorophenyl)quinazolin-2-yl)amino)-2-(2-methoxyethoxy)phenyl)acrylamide]
< 50 | < 50 | < 50 | < 50 | < 100 | < 50 |  |  | C=CC(=O)Nc1cc(Nc2ncc3cccc(-c4cccc(Cl)c4)c3n2)ccc1N1CCOCC1 [Example C016, N-(5-((8-(3-chlorophenyl)quinazolin-2-yl)amino)-2-morpholinophenyl)acrylamide]
< 50 | > 50 | > 50 |  | < 100 |  |  |  | C=CC(=O)Nc1cc(Nc2ncc3cccc(-c4cncc(Cl)c4)c3n2)ccc1N(C)CCN(C)C [Example C021]
